The results in this text go back to patent US8361971B2, “Tablet formulation of ezatiostat” (Telik, Inc., priority 2010, dated 2013).

Holding throughout (assay type): physicochemical
Data set [1] can be described thus: X-ray diffraction, polymorphic form in tablets. Conditions: hydrochloride; for X-ray Diffraction: tablets. The protocol: X-ray powder diffraction (XRPD) analyses were performed on a Shimadzu XRD-6000 X-ray powder diffractometer using Cu Kα radiation from a long fine focus X-ray tube, operated at 40 kV, 40 mA. The divergence and scattering slits were set at 1° and the receiving slit was set at 0.15 mm. Diffracted radiation was detected by a NaI scintillation detector. A θ-2θ continuous scan at 3°/min (0.4 sec/0.02° step) from 2.5°-40° 2θ was used. A silicon standard was analyzed to check alignment of the instrument. Data were collected and analyzed using XRD-6000 v.4.1 software.
Stress experiments: solids were stressed under different temperature and/or relative humidity (RH) environments for a measured time period. Specific RH values were achieved by placing the sample inside sealed chambers containing saturated salt solutions. Samples were analyzed by XRPD immediately after removal from the stress environment.
(§1) As described above, form E converts to form B simply during tableting.
(§2) Tablets of ansolvate form D, were packaged with and without desiccant (Sorb-It Cannister, 1 gram). Fifty tablets were packaged in a round, white 1500 mL bottle with a screw cap over an induction seal. Impurities were assayed by HPLC. When stored at 25° C./60% RH with desiccant for 3 months, no increase in total impurities was observed. When stored at 40° C./75% RH with desiccant for 3 months, total impurities increased only by 0.3%. When stored at 40° C./75% RH without desiccant for 3 months, total impurities still increased by 1.1%. As tabulated below, the presence of desiccant appears to further increase the stability of the ansolvate form D. Even though the dissolution rate of tablets containing polymorph D from one batch was below specification (<70%) at an initial test as well as after 3 months at 25° C./60% RH with desiccant, the subsequent batches met the required specification.

The nature of data set [2]: Description (appearance) of tablets on storage. On the procedure: as §2
Data set [3] can be described thus: Assay and impurities by HPLC of tablets on storage. Set-up: key to Individual Impurities RRT = 0.74 / TLK 236 RRT = 0.88 / Individual Impurities RRT = 0.96 / Total impurities: impurity content in %. Conditions: 6 Month at 40° C./75% RH without desiccant, hydrochloride.
Data set [4] in a line: Tablet dissolution (Q at 45 min). The note with it: tablets, hydrochloride.
Description: Without being bound by theory, a higher dissolution rate relates to a higher amount of the active agent in the gastric fluid, which in turn relates to higher bioavailability of the active agent. A high bioavailability is desired, for example and without limitation, for reducing inter patient variability of drug exposure for a orally administered agent such as ezatiostat hydrochloride. […] The aqueous solubility can be measured in a variety of aqueous solvents, including without limitation, water, 0.9% aqueous NaCl, 5% dextrose for injection, phosphate buffered saline, and generally aqueous solutions having a pH of less than about 5. Such solvents may include suitable buffers and other salts. […]
as §2

Data set [5] in a line: Water content of tablets on storage. The note with it: hydrochloride. The protocol:
Karl Fischer analyses for water determination were performed on a Mettler Toledo DL39 Karl Fischer titrator. About 10-15 mg of sample was placed in the KF titration vessel containing approximately 100 mL of Hydranal®—Coulomat AD reagent and mixed for 60 seconds to ensure dissolution. The dissolved sample was then titrated by means of a generator electrode which produces iodine by electrochemical oxidation. […]
as §2

The nature of data set [6]: Assay and impurities by HPLC of tablets on storage. Also noted: key to Individual Impurities RRT = 0.74 / Individual Impurities RRT = 0.83 / TLK 236 RRT = 0.88 / Individual Impurities RRT = 0.94 / Individual Impurities RRT = 0.96 / Total impurities / Individual Impurities RRT = 0.80 / Individual Impurities RRT = 0.81 / Individual Impurities RRT = 0.86 / Individual Impurities RRT = 0.99: impurity content in %.
Description: As used herein, “impurity” refers to one or more of: TLK 236, another polymorphic form of ezatiostat hydrochloride including without limitation form A, B, C, E, or F, and any other compound other than ezatiostat hydrochloride ansolvate, which may be identified by HPLC. TLK 236 is a monoester derived from the partial hydrolysis of ezatiostat where the phenyl glycine moiety remains esterified.
as §1, §2

[7] abbreviates: 3 Month at 40° C./75% RH without desiccant.
Setting [8] is: 6 Month at 40° C./75% RH without desiccant.
Where [9] appears, read: 6 Month at 40° C./75% RH without desiccant, hydrochloride.
The mark [10] stands for this setting: 3 Month at 40° C./75% RH without desiccant, hydrochloride.

As to `CCOC(=O)[C@@H](N)CCC(=O)N[C@@H](CSCc1ccccc1)C(=O)N[C@@H](C(=O)OCC)c1ccccc1.Cl` [Polymorph Form A, ezatiostat hydrochloride], the “polymorphic conversion during tablet manufacture” value in data set [1] (during tablet manufacture, listed as solvate form A) was “converting into a mixture of forms A and D during manufacture”. Moreover, the “X-ray Diffraction” value in data set [1] (setting [7]), in data set [1] (setting [8]) and in data set [1] (Initial) was “Polymorph A” in each case. Further, the figures for the Description entry in data set [2] (setting [7]), in data set [2] (setting [9]) and in data set [2] (Initial) were “Off-white”, “Off-white” and “White round”, respectively. The “Assay (HPLC)” value in data set [3] is listed as 91.5 % Label Claim; in data set [6] (setting [10]) it was 94.1 % Label Claim; in data set [6] (Initial, hydrochloride), 97.2 % Label Claim. In addition, the “Individual Impurities RRT = 0.59/0.62” value in data set [3] is on record as 0.07. Moreover, the “Individual Impurities RRT = 0.74” value is given as 0.15 in data set [3]; 0.16 in data set [6] (setting [10]); 0.13 in data set [6] (Initial, hydrochloride). The “Individual Impurities RRT = 0.96” value is reported as 0.21 in data set [3]; 0.16 in data set [6] (setting [10]); 0.16 in data set [6] (Initial, hydrochloride). Further, the “TLK 236 RRT = 0.88” value in data set [3] is reported as 2.92; in data set [6] (setting [10]), 1.99; in data set [6] (Initial, hydrochloride), 0.45. Moreover, the Total impurities in data set [3] was 3.5; in data set [6] (setting [10]) it was 2.7; in data set [6] (Initial, hydrochloride), 1.2. The “Dissolution, Mean at 45 min” value in data set [4] (setting [7]) is “Mean = 74 % of label claim”; in data set [4] (setting [8]) it was “Mean = 71 % of label claim”; in data set [4] (Initial), “Mean = 12 % of label claim”. Further, the “Water Content” value in data set [5] (setting [7]) is 1.7%; in data set [5] (setting [8]), 1.9%; in data set [5] (Initial) it was 2.1%. Further, the “Individual Impurities RRT = 0.80” value in data set [6] (setting [10]) is on record as 0.08; in data set [6] (setting [9]) it was 0.14. Further, the “Individual Impurities RRT = 0.81” value in data set [6] (setting [10]) is listed as 0.07; in data set [6] (setting [9]) it was 0.05. In addition, the “Individual Impurities RRT = 0.83” value in data set [6] (setting [10]) was 0.10; in data set [6] (Initial, hydrochloride) it was 0.46. Besides, in data set [6] (setting [10]), the “Individual Impurities RRT = 0.94” value was 0.07. Also, the “Individual Impurities RRT = 0.99” value in data set [6] (setting [10]) is given as 0.07.
`CCOC(=O)[C@@H](N)CCC(=O)N[C@@H](CSCc1ccccc1)C(=O)N[C@@H](C(=O)OCC)c1ccccc1.Cl` [Polymorphic form B, ezatiostat hydrochloride]: in data set [6] (Total impurities of Tables 5-7), the “rate of decomposition relative to ansolvate form D” value is “more than double the rate of decomposition of the ansolvate form D”.
